# Results taken from patent publication US20180125834A1, “METHODS OF TREATING BACTERIAL INFECTIONS AND FUNGAL INFECTIONS USING ENANTIOPURE DEUTERIUM-ENRICHED PIOGLITAZONE” (DeuteRx, LLC, priority 2015, published 2018).
# Experiments:
# [1] = In vitro stability (enantiomerization, D/H exchange) in human plasma at 37° C.; type: in vitro ADME; conditions: up to 32 h
# Protocol: (§1) The plasma samples were incubated at 37° C. in duplicate (anticoagulant: K3EDTA). […] Samples were placed at −80° C. until the study was complete. […] The vortexed samples were centrifuged and 50 μL of supernatant was dispensed in a 96-well plate.
# (§2) The deuterium in both enantiomers, d-S and d-R, can be lost by D/H exchange to give both protonated enantiomers, h-S and h-R with rate constants kDRR, kDRS, kDSR, and kDSS. At the same time, the protonated enantiomers h-S and h-R can exchange with enantiomerization rate constants kRS and kSR. All four compounds can also degrade with potentially different degradation rate constants kdSd, kdRd, khSd, and khRd.
# (§3) Human and mouse plasma data were analyzed independently. […] Data in each species was analyzed using a stepwise approach.
# (§4) The step between calculated time points was minimized in order to minimize the local error (proportional to the square of the step size) and the global error (proportional to the step size).
# [2] = In vitro stability (enantiomerization, D/H exchange) in C57BL/6 mouse plasma at 37° C.; type: in vitro ADME; conditions: up to 32 h
# Protocol: as §1, §2, §3, §4
# C2C12 cells = conditions: 30 μM for 15, 30, or 90 min; 10 mM sodium pyruvate
# Protocol: On the day before the assay, C2C12 cells were subcultured in XF96 microplates at a density of 20,000 cells per well. After overnight incubation (37° C., 5% CO2), the cells were washed 3 times with assay medium (Seahorse medium (Seahorse Bioscience, North Billerica, Mass.) containing 10 mM sodium pyruvate, pH 7.4). […] Incubation times of 15, 30, or 90 min were used prior to measurement of maximal respiration, i.e., until addition of FCCP. […] Maximal respiration as oxygen consumption rates (pmoles O2/min) was measured for each compound, at each concentration, and each time point in three separate experiments.
# [3] = molecular target: T1, human recombinant monoamine oxidase B (Homo sapiens, UniProt P27338); assay: Monoamine oxidase B (MAO-B) inhibition, luminescence assay; type: biochemical
# T1 sequence (P27338 1-520): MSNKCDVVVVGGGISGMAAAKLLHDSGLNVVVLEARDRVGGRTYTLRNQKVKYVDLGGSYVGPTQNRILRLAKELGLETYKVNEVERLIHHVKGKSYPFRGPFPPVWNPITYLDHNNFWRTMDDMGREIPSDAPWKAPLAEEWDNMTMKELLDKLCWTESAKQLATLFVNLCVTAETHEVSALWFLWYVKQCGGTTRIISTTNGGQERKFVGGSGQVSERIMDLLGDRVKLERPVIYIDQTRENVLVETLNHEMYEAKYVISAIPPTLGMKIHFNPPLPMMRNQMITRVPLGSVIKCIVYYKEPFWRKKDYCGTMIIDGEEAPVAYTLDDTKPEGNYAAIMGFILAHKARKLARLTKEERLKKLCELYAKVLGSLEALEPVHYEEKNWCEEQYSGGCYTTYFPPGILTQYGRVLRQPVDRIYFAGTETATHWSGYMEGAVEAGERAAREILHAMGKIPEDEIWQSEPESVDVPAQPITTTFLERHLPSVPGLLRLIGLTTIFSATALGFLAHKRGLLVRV
# Protocol: The mixtures were incubated at 22° C. for 5 min. Substrate (D-luciferin derivative) was added, and then the mixture was incubated at 37° C. for 60 min. The reaction was stopped by addition of the detection reagent containing luciferase. Luminescence was read after standing for 60 min at room temperature.
# Results were expressed as a percentage of the luminescence of the control (enzyme+substrate). IC50 values were obtained by fitting experimental data (mean % luminescence as function of concentration) to the Hill equation with variable slope using non-linear regression analysis.
# [4] = In vitro plasma stability, half-life of deuterated vs. protonated enantiomers (plasma species not given); type: in vitro ADME; conditions: 37° C., t1/2=ln(2)/k from fitted rate constants
# Protocol: as §1, §2, §3, §4
degradation (sum of peak areas vs. incubation time) [1],degradation (sum of peak areas vs. incubation time) [2],difference in inhibition efficacy between d-R-pio and d-S-pio [3],SMILES,maximal respiration as oxygen consumption rate (OCR) vs. vehicle-treated cells (C2C12 cells),half-life of deuterated enantiomer vs. corresponding protonated enantiomer [4]
negligible,negligible,–,"CCc1ccc(CCOc2ccc(C[C@H]3SC(=O)NC3=O)cc2)nc1 [h-R-pio, (R)-5-({p-[2-(5-ethyl-2-pyridyl)ethoxy]phenyl}methyl)-1,3-thiazolidine-2,4-dione, reference compound]",–,–
negligible,negligible,–,"CCc1ccc(CCOc2ccc(C[C@@H]3SC(=O)NC3=O)cc2)nc1 [h-S-pio, (S)-5-({p-[2-(5-ethyl-2-pyridyl)ethoxy]phenyl}methyl)-1,3-thiazolidine-2,4-dione, reference compound]",–,–

# Second part, the compound before the results:
SMILES,degradation (sum of peak areas vs. incubation time) [1],degradation (sum of peak areas vs. incubation time) [2],difference in inhibition efficacy between d-R-pio and d-S-pio [3],maximal respiration as oxygen consumption rate (OCR) vs. vehicle-treated cells (C2C12 cells),half-life of deuterated enantiomer vs. corresponding protonated enantiomer [4]
"CCc1ccc(CCOc2ccc(CC3SC(=O)NC3=O)cc2)nc1 (racemic) [h-rac-pio, rac-5-({p-[2-(5-Ethyl-2-pyridyl)ethoxy]phenyl}methyl)-1,3-thiazolidine-2,4-dione, reference compound]",–,–,–,inhibited maximal respiration,–
"[2H][C@]1(Cc2ccc(OCCc3ccc(CC)cn3)cc2)SC(=O)NC1=O [d-R-pio, (R)-5-({p-[2-(5-Ethyl-2-pyridyl)ethoxy]phenyl}methyl)-(5-^2H)-1,3-thiazolidine-2,4-dione]",negligible,negligible,greater than 5 fold,inhibited maximal respiration,approximately two-fold
"[2H][C@@]1(Cc2ccc(OCCc3ccc(CC)cn3)cc2)SC(=O)NC1=O [d-S-pio, (S)-5-({p-[2-(5-Ethyl-2-pyridyl)ethoxy]phenyl}methyl)-(5-^2H)-1,3-thiazolidine-2,4-dione]",negligible,negligible,–,no significant measurable effect,approximately the same as the half-life for h-S-pio
